Reference: the NIST ThermoML archive (doi:10.1016/j.jct.2015.09.030)

Tests used:
[1] = Liquid; for viscosity: Falling or rolling sphere viscometry; for mass density: Vibrating tube method
[2] = xn = mol fraction of the nth substance listed; conditions: 100 kPa, Liquid, x2 = 0; for mass density: Vibrating tube method; for viscosity: Falling or rolling sphere viscometry

CO [methanol]
[1], 100 kPa
Conditions	mass density [kg/m3]	viscosity [mPa·s]
290.15 K	797.3	0.6069
293.15 K	793.5	0.5853
295.15 K	790.8	0.5571
298.15 K	786.8	0.5446
303.15 K	781.4	0.5122
308.15 K	777.3	0.4794
313.15 K	772.1	0.4508
318.15 K	767.7	0.4317
323.15 K	762.1	0.4051

CO [methanol] + CCCCCCCCCCCCCC[P+](CCCCCC)(CCCCCC)CCCCCC.[Cl-]
[2]
Conditions	mass density [kg/m3]	viscosity [mPa·s]
290.15 K	797.3	–
293.15 K	793.5	–
295.15 K	790.8	0.557
298.15 K	786.8	0.544
303.15 K	781.4	0.512
308.15 K	777.3	0.479
313.15 K	772.1	0.451

CCCCCCCCCCCCCC[P+](CCCCCC)(CCCCCC)CCCCCC.[Cl-] [trihexyl(tetradecyl)phosphonium chloride]
[1], 101.33 kPa
Conditions	mass density [kg/m3]	viscosity [mPa·s]
290.15 K	897.5	–
293.15 K	895.8	1996
295.15 K	894.6	1996
298.15 K	892.8	1683
303.15 K	889.8	1174
308.15 K	886.9	824.1
313.15 K	883.9	593.7
318.15 K	880.8	399.9
323.15 K	878	325.9
